Results as given in paper PMC9632963, “Preclinical characterization and phase I clinical trial of CT053PTSA targets MET, AXL, and VEGFR2 in patients with advanced solid tumors” (Frontiers in Immunology, 2022).
Read-outs that look alike come from different tables or passages of the source.

Legend:
[1] = system: circulating tumor DNA (ctDNA); test: Circulating tumor DNA sequencing in plasma of one NSCLC patient; type: in vivo, human
Description: Moreover, we analyzed the patient who achieved SD for 24 weeks. The patient was a person with EGFR exon 19-21 wild type, ALK negative non-small cell lung cancer (NSCLC). They had failed 1 line of platinum-based chemotherapy with a PFS of 27 months. […] The plasma of the patient was prospectively collection on the first day of cycle 1, 3, 6, whole exon sequencing of 416 genes was performed to assess circulating tumor DNA (ctDNA) with Illumina platform. […] The patient received 6-time tumor assessments, the response was classified as SD ( Figure 5E ), and the nontarget lesions remained unchanged ( Figure 5F ). However, the patient experienced tumor progression after 6 cycles of CT053PTSA administration, and which point, the target lesion enlarged.

[2] = Phase I trial: clinical pharmacokinetics in plasma; type: in vivo, human; conditions: for AUC(0-inf) / Cmax / AUC(0-t) / AUC / half-life / Tmax / Vd/F: human, plasma; for AUC(0-t): read-out: AUC0-168; for AUC: read-out: AUC0-τ; for Vd/F: read-out: Vz/F
Description: A clinical pharmacokinetic study of CT053PTSA was performed for both single doses and multiple doses. Blood samples were collected from each subject at prespecified times before and after single-dose administration (systemic blood samples: before treatment and 0.5, 1, 2, 3, 4, 5, 8, 12, 24, 36, 48, 72, 120 and 168 hours after treatment) and during multiple dosing (cycle 1 before treatment on Days 8, 15 and 22, as well as systemic blood samples on Day 28). […]
Statistical analysis of CT053-treated tumors versus vehicle-treated tumors or versus nontreated tumors was performed by repeated-measures ANOVA. The data from the tumor xenograft models were expressed as the means ± standard error of the mean (SEM) and were plotted as a function of time. Noncompartmental pharmacokinetic analysis was performed using Phoenix WinNonlin Version 6.2.1 (Certara Inc., NJ, USA). Demographics and laboratory results of all the subjects were summarized using descriptive statistics. The pharmacokinetic parameters Tmax and T1/2 were shown as the median (min, max) and mean ± SD, respectively. A two-sided P < 0.05 was considered to indicate statistical significance. Statistical analysis was performed by using GraphPad Prism 5.0 (GraphPad Prism, RRID : SCR_002798) and SPSS software version 19.0 (SPSS, RRID : SCR_002865).

[3] = oral, 15 mg, Multiple doses day 28, 15 mg, n=1
[4] = oral, 15 mg, Single dose day 1, 15 mg, n=1
[5] = oral, 30 mg, Multiple doses day 28, 30 mg, n=1
[6] = oral, 30 mg, Single dose day 1, 30 mg, n=1
[7] = oral, 60 mg, Multiple doses day 28, 60 mg, n=3, Geometric Mean (CV%)
[8] = oral, 60 mg, Single dose day 1, 60 mg, n=5, Geometric Mean (CV%)
[9] = oral, 100 mg, Multiple doses day 28, 100 mg, n=5, Geometric Mean (CV%)
[10] = oral, 100 mg, Single dose day 1, 100 mg, n=7, Geometric Mean (CV%)
[11] = oral, 150 mg, Multiple doses day 28, 150 mg, n=1
[12] = oral, 150 mg, Single dose day 1, 150 mg, n=4, Geometric Mean (CV%)

Cc1c(C(=O)Nc2ccc(Oc3ccnc4cc(OCC(C)(C)O)ccc34)c(F)c2)c(=O)n(-c2ccccc2)n1C [CT053PTSA]
ctDNA APC p.E520X (c. G1558T) ([1]; Cycle 1, 60 mg): 0%
ctDNA AXL p. A79T (c. G235A) ([1]; Cycle 1, 60 mg): 0%
ctDNA BRCA1 p.E344X (c. G1030T) ([1]; Cycle 1, 60 mg): 0.32%
ctDNA EGFR p. F712Y (c. T2135A) ([1]; Cycle 1, 60 mg): 0.12%
ctDNA FLT3 p.p893L (c.C2678T) ([1]; Cycle 1, 60 mg): 0%
ctDNA FLT4 p.D998V (c.A2993T) ([1]; Cycle 1, 60 mg): 0%
ctDNA FP300 p.Q2332X (c.C6994T) ([1]; Cycle 1, 60 mg): 0.19%
ctDNA PALB2 p.C800X (c.T2400A) ([1]; Cycle 1, 60 mg): 0%
ctDNA APC p.E520X (c. G1558T) ([1]; Cycle 3, 60 mg): 0%
ctDNA AXL p. A79T (c. G235A) ([1]; Cycle 3, 60 mg): 0%
ctDNA BRCA1 p.E344X (c. G1030T) ([1]; Cycle 3, 60 mg): 0.12%
ctDNA EGFR p. F712Y (c. T2135A) ([1]; Cycle 3, 60 mg): 0%
ctDNA FLT3 p.p893L (c.C2678T) ([1]; Cycle 3, 60 mg): 0%
ctDNA FLT4 p.D998V (c.A2993T) ([1]; Cycle 3, 60 mg): 0%
ctDNA FP300 p.Q2332X (c.C6994T) ([1]; Cycle 3, 60 mg): 0.21%
ctDNA PALB2 p.C800X (c.T2400A) ([1]; Cycle 3, 60 mg): 0%
ctDNA APC p.E520X (c. G1558T) ([1]; Cycle 6, 60 mg): 0%
ctDNA AXL p. A79T (c. G235A) ([1]; Cycle 6, 60 mg): 0%
ctDNA BRCA1 p.E344X (c. G1030T) ([1]; Cycle 6, 60 mg): 0%
ctDNA EGFR p. F712Y (c. T2135A) ([1]; Cycle 6, 60 mg): 0%
ctDNA FLT3 p.p893L (c.C2678T) ([1]; Cycle 6, 60 mg): 0%
ctDNA FLT4 p.D998V (c.A2993T) ([1]; Cycle 6, 60 mg): 0%
ctDNA FP300 p.Q2332X (c.C6994T) ([1]; Cycle 6, 60 mg): 0%
ctDNA PALB2 p.C800X (c.T2400A) ([1]; Cycle 6, 60 mg): 0%
Cl/F ([2]; Multiple doses day 28, 15 mg, n=1): 1580 mL/h
Cl/F ([2]; Multiple doses day 28, 30 mg, n=1): 1090 mL/h
Cl/F ([2]; Multiple doses day 28, 150 mg, n=1): 4470 mL/h
Cl/F ([2]; Single dose day 1, 15 mg, n=1): 2420 mL/h
Cl/F ([2]; Single dose day 1, 30 mg, n=1): 1000 mL/h
steady state reached ([2]; daily dosing): ≤ 8 days
AUC(0-inf) [2, 3]: 24000 ng·h/mL
Cmax [2, 3]: 598 ng/mL
AUC(0-t) [2, 3]: 23700 ng·h/mL
AUC [2, 3]: 9510 ng·h/mL
half-life ([2]; oral, 15 mg, Multiple doses day 28, 15 mg, n=1, read-out: T1/2 (converted)): 1670 min
Tmax ([2]; oral, 15 mg, Multiple doses day 28, 15 mg, n=1, read-out: Tmax): 2 h
Vd/F [2, 3]: 63.5 L
AUC(0-inf) [2, 4]: 6190 ng·h/mL
Cmax [2, 4]: 345 ng/mL
AUC(0-t) [2, 4]: 6120 ng·h/mL
AUC [2, 4]: 3760 ng·h/mL
half-life ([2]; oral, 15 mg, Single dose day 1, 15 mg, n=1, read-out: T1/2 (converted)): 1880 min
Tmax ([2]; oral, 15 mg, Single dose day 1, 15 mg, n=1, read-out: Tmax): 3 h
Vd/F [2, 4]: 110 L
AUC(0-inf) [2, 5]: 84100 ng·h/mL
Cmax [2, 5]: 1790 ng/mL
AUC(0-t) [2, 5]: 81200 ng·h/mL
AUC [2, 5]: 27600 ng·h/mL
half-life ([2]; oral, 30 mg, Multiple doses day 28, 30 mg, n=1, read-out: T1/2 (converted)): 2300 min
Tmax ([2]; oral, 30 mg, Multiple doses day 28, 30 mg, n=1, read-out: Tmax): 2 h
Vd/F [2, 5]: 60.2 L
AUC(0-inf) [2, 6]: 29900 ng·h/mL
Cmax [2, 6]: 796 ng/mL
AUC(0-t) [2, 6]: 29100 ng·h/mL
AUC [2, 6]: 12300 ng·h/mL
half-life ([2]; oral, 30 mg, Single dose day 1, 30 mg, n=1, read-out: T1/2 (converted)): 1910 min
Tmax ([2]; oral, 30 mg, Single dose day 1, 30 mg, n=1, read-out: Tmax): 3 h
Vd/F [2, 6]: 46.2 L
AUC(0-inf) [2, 7]: 91100 ng·h/mL
Cmax [2, 7]: 2720 ng/mL
AUC(0-t) [2, 7]: 89700 ng·h/mL
AUC [2, 7]: 37000 ng·h/mL
Vd/F [2, 7]: 60.5 L
half-life ([2]; oral, 60 mg, Multiple doses day 28, 60 mg, n=3, Mean ± SD, read-out: T1/2 (converted)): 1570 ± 270 min
Tmax ([2]; oral, 60 mg, Multiple doses day 28, 60 mg, n=3, Median (Min, Max), read-out: Tmax): 2 h
AUC(0-inf) [2, 8]: 29200 ng·h/mL
Cmax [2, 8]: 1340 ng/mL
AUC(0-t) [2, 8]: 28700 ng·h/mL
AUC [2, 8]: 13700 ng·h/mL
Vd/F [2, 8]: 71.8 L
half-life ([2]; oral, 60 mg, Single dose day 1, 60 mg, n=5, Mean ± SD, read-out: T1/2 (converted)): 1480 ± 342 min
Tmax ([2]; oral, 60 mg, Single dose day 1, 60 mg, n=5, Median (Min, Max), read-out: Tmax): 2 h
AUC(0-inf) [2, 9]: 156000 ng·h/mL
Cmax [2, 9]: 4330 ng/mL
AUC(0-t) [2, 9]: 146000 ng·h/mL
AUC [2, 9]: 57300 ng·h/mL
Vd/F [2, 9]: 90.9 L
half-life ([2]; oral, 100 mg, Multiple doses day 28, 100 mg, n=5, Mean ± SD, read-out: T1/2 (converted)): 2290 ± 858 min
Tmax ([2]; oral, 100 mg, Multiple doses day 28, 100 mg, n=5, Median (Min, Max), read-out: Tmax): 2 h
AUC(0-inf) [2, 10]: 57700 ng·h/mL
Cmax [2, 10]: 1890 ng/mL
AUC(0-t) [2, 10]: 56000 ng·h/mL
AUC [2, 10]: 24400 ng·h/mL
Vd/F [2, 10]: 79.8 L
half-life ([2]; oral, 100 mg, Single dose day 1, 100 mg, n=7, Mean ± SD, read-out: T1/2 (converted)): 1970 ± 510 min
Tmax ([2]; oral, 100 mg, Single dose day 1, 100 mg, n=7, Median (Min, Max), read-out: Tmax): 2 h
AUC(0-inf) [2, 11]: 50600 ng·h/mL
Cmax [2, 11]: 2930 ng/mL
AUC(0-t) [2, 11]: 50500 ng·h/mL
AUC [2, 11]: 33600 ng·h/mL
half-life ([2]; oral, 150 mg, Multiple doses day 28, 150 mg, n=1, read-out: T1/2 (converted)): 828 min
Tmax ([2]; oral, 150 mg, Multiple doses day 28, 150 mg, n=1, read-out: Tmax): 2 h
Vd/F [2, 11]: 88.7 L
AUC(0-inf) [2, 12]: 68500 ng·h/mL
Cmax [2, 12]: 2970 ng/mL
AUC(0-t) [2, 12]: 65500 ng·h/mL
AUC [2, 12]: 30500 ng·h/mL
Vd/F [2, 12]: 99.8 L
half-life ([2]; oral, 150 mg, Single dose day 1, 150 mg, n=4, Mean ± SD, read-out: T1/2 (converted)): 2030 ± 822 min
Tmax ([2]; oral, 150 mg, Single dose day 1, 150 mg, n=4, Median (Min, Max), read-out: Tmax): 2.5 h
Tmax ([2]; po, multiple doses, oral, read-out: median Tmax): 2 h
half-life ([2]; po, multiple oral doses, read-out: mean half-life, range over cohorts): 828 to 2300 min
Tmax ([2]; po, single dose, oral, read-out: median Tmax): 2 to 3 h
half-life ([2]; po, single oral dose, read-out: mean half-life, range over cohorts): 1480 to 2030 min
